We go through 14 compounds from patent publication US20100063282A1, “Glucocorticoid Mimetics, Methods of Making Them, Pharmaceutical Compositions, and Uses Thereof” (BOEHRINGER INGELHEIM INTERNATIONAL GMBH, priority 2007, published 2010).

Molecules are shown by their SMILES. Where only a bound is given, the exact number is not on record here.

Assay [1] addresses T1, human glucocorticoid receptor (GR) complex (Homo sapiens, UniProt P04150).
T1 construct: made in house; host or cells: insect cells (baculovirus expression); used as crude lysate
T1 sequence (P04150 1-777): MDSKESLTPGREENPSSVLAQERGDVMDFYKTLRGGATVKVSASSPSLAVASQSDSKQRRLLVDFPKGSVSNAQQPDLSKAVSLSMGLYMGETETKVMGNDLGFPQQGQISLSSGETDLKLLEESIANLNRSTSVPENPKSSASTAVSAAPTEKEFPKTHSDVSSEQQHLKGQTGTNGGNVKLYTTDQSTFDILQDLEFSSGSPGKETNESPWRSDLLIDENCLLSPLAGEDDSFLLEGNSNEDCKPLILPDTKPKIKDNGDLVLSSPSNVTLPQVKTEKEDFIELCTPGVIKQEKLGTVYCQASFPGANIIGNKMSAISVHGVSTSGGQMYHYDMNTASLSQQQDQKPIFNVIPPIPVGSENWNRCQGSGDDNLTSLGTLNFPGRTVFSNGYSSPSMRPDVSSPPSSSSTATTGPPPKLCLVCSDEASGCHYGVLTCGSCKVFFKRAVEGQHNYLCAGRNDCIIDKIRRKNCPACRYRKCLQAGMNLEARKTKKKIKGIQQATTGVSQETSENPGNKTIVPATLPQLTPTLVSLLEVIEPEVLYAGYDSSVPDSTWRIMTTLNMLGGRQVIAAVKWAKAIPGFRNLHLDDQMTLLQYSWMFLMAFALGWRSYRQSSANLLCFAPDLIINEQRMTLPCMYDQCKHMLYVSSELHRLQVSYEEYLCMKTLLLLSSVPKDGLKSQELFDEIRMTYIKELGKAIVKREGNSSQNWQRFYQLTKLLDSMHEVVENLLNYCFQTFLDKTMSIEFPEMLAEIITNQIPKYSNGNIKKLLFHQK
Put plainly: Glucocorticoid receptor competitive binding assay (fluorescence polarization). The following applies: competition with TAMRA-labeled dexamethasone, GR-containing baculovirus lysate, 1 hour at room temperature. How it is done:
Compounds of the invention were evaluated for binding to the steroid receptor by a fluorescence polarization competitive binding assay. Detailed descriptions for preparation of recombinant glucocorticoid receptor (GR) complex used in the assay is described in U.S. Patent Application Publication No. US 2003/0017503, filed May 20, 2002, and incorporated herein by reference in its entirety. Preparation of the tetramethylrhodamine (TAMRA)-labeled dexamethasone probe was accomplished using a standard literature procedure (M. Pons et al., J. Steroid Biochem., 1985, 22, pp. 267-273).
The affinity of the probe for the steroid receptor was then determined in a titration experiment. The fluorescence polarization value of the probe in assay buffer was measured on an SLM-8100 fluorometer using the excitation and emission maximum values described above. Aliquots of expression vector lysate were added and fluorescence polarization was measured after each addition until no further change in polarization value was observed. Non-linear least squares regression analysis was used to calculate the dissociation constant of the probe from the polarization values obtained for lysate binding to the probe.
This assay uses fluorescence polarization (FP) to quantitate the ability of test compounds to compete with tetramethylrhodamine (TAMRA)-labeled dexamethasone for binding to a human glucocorticoid receptor (GR) complex prepared from an insect expression system. The assay buffer was: 10 mM TES, 50 mM KCl, 20 mM Na2MoO4.2H2O, 1.5 mM EDTA, 0.04% w/v CHAPS, 10% v/v glycerol, 1 mM dithiothreitol, pH 7.4. Test compounds were dissolved to 1 mM in neat DMSO and then further diluted to 10× assay concentration in assay buffer supplemented with 10% v/v DMSO. Test compounds were serially diluted at 10× assay concentrations in 10% DMSO-containing buffer in 96-well polypropylene plates. Binding reaction mixtures were prepared in 96-well black Dynex microtiter plates by sequential addition of the following assay components to each well: 15 μL of 10× test compound solution, 85 μL of GR-containing baculovirus lysate diluted 1:170 in assay buffer, and 50 μL of 15 nM TAMRA-labeled dexamethasone. Positive controls were reaction mixtures containing no test compound; negative controls (blanks) were reaction mixtures containing 0.7 μM to 2 μM dexamethasone. The binding reactions were incubated for 1 hour at room temperature and then read for fluorescence polarization in the LJL Analyst set to 550 nm excitation and 580 nm emission, with the Rhodamine 561 dichroic mirror installed. IC50 values were determined by iterative non-linear curve fitting of the FP signal data to a 4-parameter logistic equation.

A further assay concerns glucocorticoid receptor. Put plainly: Glucocorticoid receptor function, one or more of the above assays. It is filed as cell-based. To be noted: in one or more of the above assays, assay not specified. The protocol: Dexamethasone, a synthetic ligand to the glucocorticoid receptor (GR), induces expression of aromatase in human foreskin fibroblast cells. The activity of aromatase is measured by the conversion of testosterone to estradiol in culture media.
Human foreskin fibroblast cells (ATCC Cat. No. CRL-2429, designation CCD112SK) are plated on 96 well plates at 50,000 cells per well 5 days before use, in Iscove's Modified Dulbecco's Media (GibcoBRL Life Technologies Cat No. 12440-053) supplemented with 10% charcoal filtered FBS (Clonetech Cat No. SH30068) and Gentamycin (GibcoBRL Life Technologies Cat. No. 15710-064). On the day of the experiment, the media in the wells is replaced with fresh media. Cells are treated with test compounds to final concentrations of 10^−5 M to 10^−8 M, and testosterone to a final concentration of 300 ng/mL. Each well has a total volume of 100 μL. Samples are made in duplicates. […] Estradiol in the supernatant is measured using ELISA kits for estradiol (made by ALPCO, obtained from American Laboratory Products Cat. No. 020-DR-2693) according to the manufacture's instruction. […] The extent of aromatase induction by test compounds is expressed as a relative percentage to dexamethasone. […]
Human foreskin fibroblast cells (ATCC Cat. No. CRL-2429) are plated on 96 well plates at 5,000 cells per well the day before use, in Iscove's Modified Dulbecco's Media (GibcoBRL Life Technologies Cat. No. 12440-053) supplemented with 10% charcoal filtered FBS (Clonetech Cat. No. SH30068) and Gentamycin (GibcoBRL Life Technologies Cat. No. 15710-064). […] IL-6 levels in the supernatants are determined by the ELISA kits for IL-6 (MedSystems Diagnostics GmbH, Vienna, Austria, Cat. No. BMS213TEN) according to manufacture's instructions. […]
H4-II-E-C3 cells were incubated overnight in 96 well plates (20,000 cells/100 μL/well) in MEM medium containing 10% heat inactivated FBS and 1% nonessential amino acids. […] After 18 hours, the cells were lysed in a buffer containing 0.1% Triton X-100 and the TAT activity was measured in a photometric assay using tyrosine and alpha-ketoglutarate as substrates. […]

Usually IC50 stands for the concentration at which inhibition is half-maximal. High values mean lower potency, low ones higher potency. In assay [1], `Cc1cc(C)c(S(=O)(=O)NC(CSc2ccccn2)C(F)(F)F)c(C)c1` (centres unmarked) [2,4,6-Trimethyl-N-[2,2,2-trifluoro-1-(pyridin-2-ylsulfanylmethyl)ethyl]benzenesulfonamide] gave a concentration for half-maximal inhibition (IC50) not above 0.1 µM.
In assay [1], `Cc1cc(C)c(S(=O)(=O)NC(CSc2nc(C)cc(C(F)(F)F)c2C#N)C(F)(F)F)c(C)c1` (centres unmarked) [N-[1-(3-Cyano-6-methyl-4-trifluoromethylpyridin-2-ylsulfanylmethyl)-2,2,2-trifluoroethyl]-2,4,6-trimethylbenzenesulfonamide] displayed a half-inhibitory concentration (IC50) not above 0.1 µM.
For `CC[C@@H](CNc1cccc2[nH]ccc12)NS(=O)(=O)c1c(N)cc(Cl)cc1Cl` [2-Amino-4,6-dichloro-N—{(S)-1-[(1H-indol-4-ylamino)methyl]propyl}benzenesulfonamide], the “activity as an agonist of the glucocorticoid receptor function” value (“activity as an agonist” for short) in the assay with glucocorticoid receptor is listed as “shown activity as an agonist”. In addition, the IC50 in assay [1] was not above 0.1 µM.
Regarding `CC[C@@H](CNc1ccc2c(cnn2-c2ccc(F)cc2)c1)NS(=O)(=O)c1c(C)cc(C)cc1C` [N—((S)-1-{[1-(4-Fluorophenyl)-1H-indazol-5-ylamino]methyl}propyl)-2,4,6-trimethylbenzenesulfonamide], the IC50 in assay [1] is not above 0.1 µM.
With `CC[C@@H](CNc1ccc2c(cnn2-c2ccc(F)cc2)c1)NS(=O)(=O)c1c(N)cc(Cl)cc1Cl` [2-Amino-4,6-dichloro-N—((S)-1-{[1-(4-fluorophenyl)-1H-indazol-5-ylamino]methyl}propyl)benzenesulfonamide], the “activity as an agonist” value in the assay on glucocorticoid receptor is “shown activity as an agonist”. The IC50 in assay [1] was not above 0.1 µM.
In assay [1], `Cc1cc(C)c(S(=O)(=O)NC(COc2cccc3ncccc23)C(F)(F)F)c(C)c1` (centres unmarked) [2,4,6-Trimethyl-N-[2,2,2-trifluoro-1-(quinolin-5-yloxymethyl)ethyl]benzenesulfonamide] gave an IC50 not above 0.1 µM.
Still for that read-out and setting: under `Cc1cc(C)c(S(=O)(=O)NC(CNc2cccc3ncccc23)C(F)(F)F)c(C)c1` (centres unmarked) [2,4,6-Trimethyl-N-[2,2,2-trifluoro-1-(quinolin-5-ylaminomethyl)ethyl]benzenesulfonamide] stands not above 0.1 µM.
Regarding `CC[C@@H](CNc1cccc2[nH]ccc12)NS(=O)(=O)c1c(C)cc(C)cc1C` [N—{(S)-1-[(1H-Indol-4-ylamino)methyl]propyl}-2,4,6-trimethylbenzenesulfonamide], in the assay with glucocorticoid receptor, the “activity as an agonist” value is reported as “shown activity as an agonist”. In assay [1], this compound yielded an IC50 not above 0.1 µM.
As for `Cc1cc(C)c(S(=O)(=O)NC(CSc2ccc([N+](=O)[O-])cn2)C(F)(F)F)c(C)c1` (centres unmarked) [2,4,6-Trimethyl-N-[2,2,2-trifluoro-1-(5-nitropyridin-2-ylsulfanylmethyl)ethyl]benzenesulfonamide], in assay [1], the IC50 was not above 0.1 µM.
Same read-out and setting: under `Cc1cc(C)c(S(=O)(=O)NC(CNc2cccc3cnccc23)C(F)(F)F)c(C)c1` (centres unmarked) [2,4,6-Trimethyl-N-[2,2,2-trifluoro-1-(isoquinolin-5-ylaminomethyl)ethyl]benzenesulfonamide] stands not above 0.1 µM; under `Cc1cc(C)c(S(=O)(=O)NC(CSc2ncccc2C(F)(F)F)C(F)(F)F)c(C)c1` (centres unmarked) [2,4,6-Trimethyl-N-[2,2,2-trifluoro-1-(3-trifluoromethylpyridin-2-ylsulfanylmethyl)ethyl]benzenesulfonamide], not above 0.1 µM.
For `CC[C@@H](CNc1cccc2cc[nH]c12)NS(=O)(=O)c1c(C)cc(C)cc1C` [N—{(S)-1-[(1H-Indol-7-ylamino)methyl]propyl}-2,4,6-trimethylbenzenesulfonamide], the IC50 in assay [1] is not above 0.1 µM.
Consider `Cc1cc(C)c(S(=O)(=O)NC(CNc2cccc3ccc(C)nc23)C(F)(F)F)c(C)c1` (centres unmarked) [2,4,6-Trimethyl-N-{2,2,2-trifluoro-1-[(2-methylquinolin-8-ylamino)methyl]ethyl}benzenesulfonamide], for which the IC50 in assay [1] is not above 0.1 µM.
Same read-out and setting: under `Cc1cc(C)c(S(=O)(=O)NC(COc2cccc3cnccc23)C(F)(F)F)c(C)c1` (centres unmarked) [2,4,6-Trimethyl-N-[2,2,2-trifluoro-1-(isoquinolin-5-yloxymethyl)ethyl]benzenesulfonamide] stands not above 0.1 µM.
